Consider one compound from patent US20230050965A1, “SSTR5 ANTAGONISTS” (Kallyope, Inc., priority 2019, published 2023).

One data set concerns the target T1, human SSTR5 (Homo sapiens, UniProt P35346).
T1 construct: expressed in transfected cells
Briefly: Inositol phosphate (IP1) accumulation assay, antagonist mode. The settings on record: CHO-K1 cells stably co-expressing human SSTR5 with Gqi5; pre-incubation with antagonist, then SST28 agonist; IP1 HTRF readout. Type of data set: cell-based. From the text:
Inositol Phosphate Accumulation Assay
CHO-K1 cells stably co-expressing human SSTR5 with Gqi5 were developed using Jump-In technology from Thermo-Fisher. Gqi5 is the mouse G alpha q protein, that was modified to interact with Gi-coupled GPCRs as described previously (Coward, P.; Chan, S. D.; Wada, H. G.; Humphries, G. M.; Conklin, B. R. Chimeric G proteins Allow a High-Throughput Signaling Assay of Gi-Coupled Receptors. Anal Biochem. 1999, 270(2), 242-248).
Co-expression of Gqi5 with SSTR5 allowed monitoring of SSTR5 activity by following IP1 accumulation. The assay was performed in a 384-well plate format using the IP1 assay kit from Cis-Bio in an antagonist mode, i.e., pre-incubation with antagonist following by receptor activation by agonist at a concentration generating 90% of full activation. Frozen cells expressing human SSTR5 were thawed, washed, and then plated in DMEM supplemented with 10% FBS and non-essential amino acids. 40 μL of 2.5×10^5 cells/mL were plated on a Poly D-Lysine coated 384-well white plate. The cells were then incubated for 16 hr. at 37° C./5% CO2. After 16 hour the medium was removed, and 10 μL of stimulation buffer was added to the cells. Test compounds were dissolved in DMSO at concentrations 2000-fold that of the final assay concentrations. 7.5 nL compound solutions were transferred to the cell plates using a Labcyte Echo® acoustic liquid handler. The plates were then incubated for 15 minutes at 37° C./5% CO2. After the first incubation, 5 μL of 30 nM SST28 were added to the cells, and the cells were incubated for 90 minutes at 37° C./5% CO2. 5 μL of detection buffer (prepared as described in the IP-1 kit) was added to each well, and the plates were incubated at RT for 1 hour.
TR-FRET was measured using a ClarioSTAR plate reader, calculating the ratio between emissions at 665 nm and 620 nm (HTRF ratio). The HTRF ratio for positive (Max) and negative (Min) controls were used to normalize HTRF data and generate values for % inhibition. IC50 and maximal inhibition values were determined using a standard 4-parameter fit.
Background: Time-resolved FRET reads energy transfer from a long-lived donor to a nearby acceptor.

Data set [1] can be described thus: Oral bioavailability after oral dosing in rat. Particulars: in vivo, Sprague Dawley rats, IV 1 mg/kg, PO 5 mg/kg, read-out: F % (oral bioavailability). The procedure: Example A-2: Oral Bioavailability of the Compounds after Oral Dosing in Rat
Oral bioavailability of the compounds was determined in Sprague Dawley rats. The table below summarizes the results. Each compound was dosed intravenously (IV) at 1 mg/kg and orally (PO) 5 mg/kg using the respective vehicles listed below. The compounds display low (<10%) oral bioavailability (F %).

T1 sequence (P35346 whole entry): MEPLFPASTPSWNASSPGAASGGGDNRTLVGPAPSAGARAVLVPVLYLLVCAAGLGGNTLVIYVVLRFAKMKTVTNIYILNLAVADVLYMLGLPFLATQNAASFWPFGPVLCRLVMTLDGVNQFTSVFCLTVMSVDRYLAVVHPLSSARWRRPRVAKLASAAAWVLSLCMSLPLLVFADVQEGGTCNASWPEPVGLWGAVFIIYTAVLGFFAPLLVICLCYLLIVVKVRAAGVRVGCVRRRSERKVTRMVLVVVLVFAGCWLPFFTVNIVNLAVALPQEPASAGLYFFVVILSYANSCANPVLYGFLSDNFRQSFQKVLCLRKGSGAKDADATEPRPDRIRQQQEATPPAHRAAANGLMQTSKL

On to `CCOc1cc(-c2ccc(F)cn2)c(C2CC2)cc1CN1CCC2(CC1)CN(c1ccc(P(=O)(O)O)cc1)C(=O)O2` [Compound 9, (4-(8-(5-cyclopropyl-2-ethoxy-4-(5-fluoropyridin-2-yl)benzyl)-2-oxo-1-oxa-3,8-diazaspiro[4.5]decan-3-yl)phenyl)phosphonic acid], for which the IC50 (as a rule, the concentration that inhibits the measured activity by half) on human SSTR5 is at most 100 nM. Also, in data set [1], the bioavailability – broadly, dose-corrected exposure relative to a reference, in per cent – is 0.2%.
